Target: T1, human BK2 receptor (Homo sapiens, UniProt P30411)
T1 construct: expressed in transfected cells; host or cells: CHO-K1 (ATCC)
T1 sequence (P30411 1-391): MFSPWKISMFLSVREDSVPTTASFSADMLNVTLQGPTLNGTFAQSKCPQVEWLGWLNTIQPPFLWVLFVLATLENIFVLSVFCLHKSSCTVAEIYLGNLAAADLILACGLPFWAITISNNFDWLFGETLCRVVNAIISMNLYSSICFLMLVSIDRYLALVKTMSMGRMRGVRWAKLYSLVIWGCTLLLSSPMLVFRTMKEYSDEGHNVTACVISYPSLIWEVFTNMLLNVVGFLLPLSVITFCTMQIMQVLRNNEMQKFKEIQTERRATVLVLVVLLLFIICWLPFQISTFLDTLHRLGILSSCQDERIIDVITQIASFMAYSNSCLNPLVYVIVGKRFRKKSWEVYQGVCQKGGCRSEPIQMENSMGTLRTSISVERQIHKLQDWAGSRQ
Experiment: Bradykinin 2 human receptor clone binding assay (inhibition of radio-labeled bradykinin binding)
Details: compound resynthesized in pure form, read-out: IC50, BK binding inhibition
Experimental: Bradykinin 2 and Bradykinin 1 Human Receptor Clone Binding Assays
Human bradykinin B2 receptor was expressed in CHO-K1 (ATCC) cells. Preparation of membranes for binding assay was carried out by scraping cells from roller bottles in ice cold PBS and centrifuging at 1000× g, at 4° C. for 15 minutes. The supernatant was discarded and pellet resuspended in Buffer A consisting of 25 mM TES (pH 6.8) with 2 uM 1,10-phenanthroline, and centrifuged at 27,000× g for 15 min. The pellet was washed once using the same buffer and centrifugation parameters. The final pellet was resuspended in Buffer B (Buffer A with 2 uM captopril, 140 ug/ml bacitracin, 0.1% BSA), and stored in 1 ml aliquot, frozen at -70° C. until needed.
B2 Binding assays were performed by incubating human clone membrane solution with ^3 H-bradykinin (final concentration 0.3 nM) with or without test compounds in assay buffer (Buffer B with 1 mM dithiothreitol), at room temperature, for 45 minutes, at a final volume of 315 ul. All test compound dilutions were done in triplicate. Assays were harvested by quick filtration in a Tomtec Harvester 96, with ice-cold wash buffer consisting of 10 mM Tris/HCl, pH 7.5, 100 mM NaCl,0.02% BSA, onto Wallec printed glassfiber Filtermat "B", which had been pre-soaked with 0.1% PEI and previously air-dried. Filtermats were counted in 9.5 ml Wallec Beta-Plate Scint, in Wallec 1450 MicroBeta Counter.

IC50 [µM]	Structure (SMILES)
4.1	N=C(N)NCCCCCCN1CC(=O)N(Cc2ccc3ccccc3c2)C(C2Cc3ccccc3C2)C1=O (racemic) [Example 60]
13	N=C(N)NCCCCCCCN1CC(=O)N(Cc2ccc(-c3ccccc3)cc2)C(C2Cc3ccccc3C2)C1=O (racemic) [Example 61]
